Patent US20130260458A1, “METHOD OF INDUCING DIFFERENTIATION OF HUMAN PLURIPOTENT STEM CELL INTO HEPATIC PROGENITOR CELL” (NATIONAL UNIVERSITY CORPORATION CHIBA UNIVERSITY, priority 2012, published 2013)

How the values were obtained:
Human iPS cells (201B7) [1] = assay: Induction of differentiation into hepatic progenitor cells by growth-promoting agents (real-time quantitative PCR of AFP and DLK-1); format: cell-based; conditions: iPS cells transfected with FOXA2, GATA4, HEX, C/EBPα three times every three days, 8th day, n=3, ± standard error, ReproFF lane = 100; for α-fetoprotein/RPL19 ratio (mRNA expression): FIG. 3-1; for DLK-1/RPL19 ratio (mRNA expression): FIG. 3-2
Protocol: Human iPS cells (201B7, RIKEN cell bank) were seeded onto a matrigel-coated 6-well plate, and cultured in a medium, ReproFF in accordance with a conventional method under the following conditions: 37° C. and 5% carbon dioxide. A lipofection reagent, Lipofectamine LTX (registered trade mark, Life Technologies Japan Ltd.) was used to transfect 0.5 μg of expression plasmids of FOXA2, GATA4, HEX and C/EBPα, respectively.
As the expression vectors of the transcription factors, used were expression vectors (human TrueClone, OriGene Technologies, Inc., COSMO BIO co., ltd.) in which full-length cDNAs of human FOXA2, GATA4, HEX and CEBPA were each incorporated in the downstream of a potent-promoting agent derived from cytomegalovirus. In the human FOXA2 expression vector (catalog No. sc122913), the full-length cDNA coding human FoxA2 protein was inserted between EcoR1 and Sal1 restricted sites of pCMV6-XL5. In the human GATA4 expression vector (catalog No. sc124037), the full-length cDNA coding human GATA4 protein was inserted between EcoR1 and Sal1 restricted sites of pCMV6-XL4. In the human HEX expression vector (catalog No. sc321626), the full-length cDNA coding human HHEX protein was inserted between Sgf1 and Mlu1 restricted sites of pCMV6-AC. In the human CEBPA expression vector (catalog No. sc303472), the full-length cDNA coding human CEBPA protein was inserted between EcoR1 and Sal1 restricted sites of pCMV6-XL5.
Immediately before transfection, the medium to be used was changed to a medium obtained by adding oncostatin M (Wako Pure Chemical Industries, Ltd.), EGF (Wako Pure Chemical Industries, Ltd.) and retinoic acid (Wako Pure Chemical Industries, Ltd.) to the iPSm(−) medium. Here, the iPSm(−) medium corresponds to a medium obtained by eliminating a basic fibroblast growth factor from a medium for feeder cells of human iPS cells recommended by CiRA at Kyoto University. […]
The transfection of the transcription factors was repeated three times every three days, and, on the 8th day, RNA was extracted using Isogen (NIPPON GENE CO., LTD.). […] Then, the amount of expressed α-fetoprotein (AFP), which was an indicator of hepatic progenitor cells, was analyzed by the real-time quantitative PCR method using a real-time PCR analysis reagent, Fast SYBR Green Master Mix (trade name, Life Technologies Japan Ltd.). […] The amounts of α-fetoprotein (AFP) and Delta-like (DLK)-1 expressed were quantitatively determined as an indicator of hepatic progenitor cells by employing ribosome-related protein (RLP19) as internal standard (each group, n=3).
The real-time quantitative PCR was performed by using the following primers through a PCR cycle including 30 cycles of 5 seconds at 95° C. and 20 seconds at 60° C.

Human iPS cells (201B7) [2] = assay: Expression of transcription factors in iPS cells cultured with single growth-promoting agents (RT-PCR, electrophoresis); format: cell-based; conditions: iPS cells in iPSm(−) medium with the growth-promoting agent added; PCR and electrophoresis, FIG. 2
Protocol: Reverse transcriptase (Life Technologies Japan Ltd.) was used to synthesize cDNAs of iPS cells, fetal hepatic cells and adult hepatic cells from 3 μg of RNA. The cDNAs were subjected to polymerase chain reaction (PCR) using the following primers to GATA4, FOXA2, HEX, C/EBPα and C/EBPβ, respectively, and to electrophoresis using 2% low-melting agarose (Lonza) and 1×TAE, for investigations on the expression of GATA4, FOXA2, HEX, C/EBPα and C/EBNβ in the iPS cells, fetal hepatic cells and adult hepatic cells.
After electrophoresis, the 2% low-melting agarose was irradiated with ultraviolet rays at 254 nm from a UV transilluminator (UVP LLC, NLMS-20E), and a Polaroid photograph (FUJIFILM Corporation, FP-3000B) thereof was taken with a gel camera (Funakoshi DS-300) to analyze an electrophoretic pattern.
PCR cycles performed included 30 cycles of thermal denaturation: 1 minute at 94° C.; annealing: 1 minute and elongation reaction: 1 minute at 72° C.
Human iPS cells (201B7, RIKEN cell bank) were seeded onto a matrigel-coated 6-well plate, and cultured in a feeder-less medium, ReproFF (trade name, Reprocell Inc.) for culture of stem cells maintained in an undifferentiated state, without using a feeder cell, under conventional conditions: 37° C. and 5% carbon dioxide.
A medium obtained by adding a 20% knock-out serum replacement (Life Technologies Japan Ltd.), 10% Minimum Essential Amino Acids (Life Technologies Japan Ltd.), 2 mM of L-glutamine (Life Technologies Japan Ltd.) and 1 mM of 2-mercaptoethanol to a D-MEM/F12 medium (Dulbecco's Modified Eagle Medium-F12 medium, Sigma-Aldrich Japan) was used as an iPSm(−) medium.
The following growth-promoting agents were added to the iPSm(−) medium, and SOX-17, GATA6, FOXA2, GATA4, HEX, TTR and C/EBPα were expressed in a manner similar to that in Experiment 1.
As the growth-promoting agents, added were bFGF (basic fibroblast growth factor, Wako Pure Chemical Industries, Ltd.), BMP (bone morphogenetic protein)-4 (Wako Pure Chemical Industries, Ltd.), oncostatinM (Wako Pure Chemical Industries, Ltd.), an epidermal growth factor (EGF, Wako Pure Chemical Industries, Ltd.), a nerve growth factor (NGF, R & D Systems, Inc.), TGF-β, (transform growth factor-β, R& D Systems, Inc.), retinoic acid (Sigma-Aldrich Japan) and a hepatic cell growth factor (HGF, Sigma-Aldrich Japan).
RT-PCR to SOX-17, GATA6 and TTR was performed under the following conditions.

Molecule	α-fetoprotein/RPL19 ratio (mRNA expression) (Human iPS cells (201B7) [1])	DLK-1/RPL19 ratio (mRNA expression) (Human iPS cells (201B7) [1])	expression of C/EBPα (Human iPS cells (201B7) [2])	expression of FOXA2 (Human iPS cells (201B7) [2])	expression of GATA4 (Human iPS cells (201B7) [2])	expression of GATA6 (Human iPS cells (201B7) [2])	expression of HEX (Human iPS cells (201B7) [2])
C[C@@H]1C[C@H]2[C@@H]3CCC4=CC(=O)C=C[C@]4(C)[C@@]3(F)[C@@H](O)C[C@]2(C)[C@@]1(O)C(=O)CO [dexamethasone]	50.1±5	208±54					
CC1=C(/C=C/C(C)=C/C=C/C(C)=C/C(=O)O)C(C)(C)CCC1 [retinoic acid]	133±58	79±40					
TGF-β: transform growth factor-β, R&D Systems			not observed to be expressed	not observed to be expressed	not observed to be expressed	observed to be expressed	not observed to be expressed
